Publication PMC2008936 (British Journal of Cancer, 1973)

Columns and labels:
[1] = test system: S. typhimurium TA 1530; format: cell-based, Salmonella typhimurium
[2] = microsomes
[3] = test system: E. coli AB 2480 (uvrA recA)
[4] = in vitro; details: male, Wistar, Escherichia coli (indicator bacteria); rat (liver fraction)
[5] = test system: Neurospora; details: cited from earlier work
[6] = test system: bacterial transforming DNA; details: cited from earlier work
[7] = test system: S. typhimurium his G46; format: cell-based, Salmonella typhimurium
[8] = test system: Drosophila; details: in vivo; cited from earlier work
[9] = test system: rat liver; details: in vivo; cited from earlier work
[10] = test system: S. typhimurium his C207; format: cell-based, Salmonella typhimurium

In the case of `OCC(S)CS` (centres unmarked) [2,3-Dimercaptopropanol], the “Effect of added agent on bacterial killing by the aflatoxin B1 metabolite” value (“Effect of added agent” below) [1] was “some protective action”, the “Inhibition of killing (fold)” value [1] was “three-fold” and the “Survivors in the presence of dimercaptopropanol” value [1] was 42%. For the same molecule, the “Effect on amount of aflatoxin B1 metabolized” value [2] was “no alteration in the amount of aflatoxin B1 metabolized”.
In the case of `Cc1ccc2cc3c(ccc4ccccc43)c3c2c1CC3` [3-methylcholanthrene, reference compound], the “Effect of pretreatment of rats on amount of lethal aflatoxin B1 metabolite formed by liver” value (“Effect of pretreatment of rats” for short) [3] was “did not alter the amount”.
With `COc1c2c(c3oc4cccc(O)c4c(=O)c3c1OC)C1C=COC1O2` (centres unmarked) [5-methoxysterigmatocystin] the “Formation of toxic metabolites on incubation with mixed function oxidases” value (shortened to “Formation of toxic metabolites”) [3] was “Toxic metabolites were also formed”.
In the case of `COc1cccc2oc3c4c(cc(OC)c3c(=O)c12)OC1OC=CC41` (centres unmarked) [O-methylsterigmatocystin], the “Formation of toxic metabolites” value [3] was “Toxic metabolites were also formed”.
For `COc1cc2c(c3oc(=O)cc(CCO)c13)C1C=COC1O2` (centres unmarked) [Parasiticol, parasiticol], the “Formation of toxic metabolites” value [3] was “Toxic metabolites were also formed”.
In the case of `CCC1(c2ccccc2)C(=O)NC(=O)NC1=O` [Phenobarbitone, phenobarbitone, reference compound], the “Effect of pretreatment of rats” value [3] was “an increase was observed”.
In the case of `O=C1c2cc(O)cc(O)c2C(=O)c2c1cc1c(c2O)[C@@H]2C=CO[C@@H]2O1` [Versicolorin A, versicolorin A], the “Formation of toxic metabolites” value [3] was “Toxic metabolites were also formed”.
In the case of `c1ccc2c(c1)cc1ccc3cccc4ccc2c1c34` [benzo(a)pyrene, reference compound], the “Effect of pretreatment of rats” value [3] was “did not alter the amount”.
For `C1CCC2OC2C1` (centres unmarked) [cyclohexene oxide], the “Effect of added agent” value [1] was “did not alter bacterial killing”.
With `N[C@@H](CS)C(=O)O` [cysteine] the “Effect of added agent” value [1] was “did not alter bacterial killing”.
With `N[C@@H](CCC(=O)N[C@@H](CS)C(=O)NCC(=O)O)C(=O)O` [glutathione] the “Effect of added agent” value [1] was “did not alter bacterial killing”.
With `CSCC[C@H](N)C(=O)O` [methionine] the “Effect of added agent” value [1] was “did not alter bacterial killing”.
For `O=S([O-])([O-])=S.[Na+].[Na+]` [sodium thiosulphate], the “Effect of added agent” value [1] was “did not alter bacterial killing”.
In the case of `COc1cc2c(c3oc4cccc(O)c4c(=O)c13)[C@@H]1C=CO[C@@H]1O2` [sterigmatocystin], the “Survival [no. viable bacteria (treated)/no. viable bacteria (control) x 100]” value [3] was 0- 3 and the viability [4] was 0.5%.
In the case of aflatoxin B1, the Mutagenicity [5] is given as “mutagenic”, the Mutagenicity [6] is given as “mutagenic” and the “Mutation of the strain by the aflatoxin B1 metabolite” value [7] is given as “not mutated by it”. The “Sensitivity of the strain to the toxic effects of the metabolite” value [7] was “resistant to the toxic effects”, the Mutagenicity [8] was “mutagenic” and the “Effect of incubation at 30 C on number of bacteria killed” value [1] was “a decrease in the number of bacteria killed”. The “Killing activity with heat denatured liver preparation” value [3] was “abolished all killing activity”, the Liver carcinogenicity [9] was “most potent liver carcinogen known for the rat” and the “Mutation of the strain by the aflatoxin B1 metabolite” value [10] was “not mutated by it”. For the same molecule, the “Sensitivity of the strain to the toxic effects of the metabolite” value [10] was “resistant to the toxic effects”.
With sodium sulphide the “Effect of added agent” value [1] was “did not alter bacterial killing”.
